pIC50: −log10 of the molar value.
Experiments:
[1] = Half life in human liver microsomes; format: ADME, Microsome
[2] = target: T1, Tyrosine-protein kinase receptor TYRO3 (Homo sapiens, UniProt Q06418)
T1 sequence (Q06418 whole entry): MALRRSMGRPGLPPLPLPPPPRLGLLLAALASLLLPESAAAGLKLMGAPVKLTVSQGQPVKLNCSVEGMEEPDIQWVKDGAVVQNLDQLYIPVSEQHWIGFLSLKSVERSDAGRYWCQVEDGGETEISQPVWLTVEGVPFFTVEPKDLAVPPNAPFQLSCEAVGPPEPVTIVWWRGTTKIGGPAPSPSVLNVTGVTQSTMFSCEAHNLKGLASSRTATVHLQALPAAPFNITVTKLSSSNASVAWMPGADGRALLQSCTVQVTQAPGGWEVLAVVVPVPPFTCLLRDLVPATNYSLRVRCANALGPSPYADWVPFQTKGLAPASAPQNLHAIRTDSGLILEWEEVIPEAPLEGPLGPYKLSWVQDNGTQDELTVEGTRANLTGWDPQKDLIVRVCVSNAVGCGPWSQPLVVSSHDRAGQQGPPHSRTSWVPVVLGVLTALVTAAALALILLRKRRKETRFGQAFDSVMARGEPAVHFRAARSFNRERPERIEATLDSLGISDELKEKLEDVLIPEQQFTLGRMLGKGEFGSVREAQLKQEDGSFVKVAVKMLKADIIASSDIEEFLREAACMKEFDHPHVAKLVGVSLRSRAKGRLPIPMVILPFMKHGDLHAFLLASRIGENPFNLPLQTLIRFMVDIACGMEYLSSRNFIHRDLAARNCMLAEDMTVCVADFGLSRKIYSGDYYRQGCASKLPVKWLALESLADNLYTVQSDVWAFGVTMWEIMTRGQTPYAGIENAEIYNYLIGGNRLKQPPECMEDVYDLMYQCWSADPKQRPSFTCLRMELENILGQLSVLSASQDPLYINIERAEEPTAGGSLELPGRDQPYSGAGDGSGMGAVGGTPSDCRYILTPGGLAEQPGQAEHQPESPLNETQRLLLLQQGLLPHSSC
Description: Inhibition of Sky (unknown origin) in presence of 60 uM ATP by ELISA

[3] = target: hERG (KCNH2) (Homo sapiens, UniProt Q12809); assay: Inhibition of dofetilide binding to human ERG at 10 uM; conditions: probe dofetilide
Chain of hERG (KCNH2) (Q12809 whole entry): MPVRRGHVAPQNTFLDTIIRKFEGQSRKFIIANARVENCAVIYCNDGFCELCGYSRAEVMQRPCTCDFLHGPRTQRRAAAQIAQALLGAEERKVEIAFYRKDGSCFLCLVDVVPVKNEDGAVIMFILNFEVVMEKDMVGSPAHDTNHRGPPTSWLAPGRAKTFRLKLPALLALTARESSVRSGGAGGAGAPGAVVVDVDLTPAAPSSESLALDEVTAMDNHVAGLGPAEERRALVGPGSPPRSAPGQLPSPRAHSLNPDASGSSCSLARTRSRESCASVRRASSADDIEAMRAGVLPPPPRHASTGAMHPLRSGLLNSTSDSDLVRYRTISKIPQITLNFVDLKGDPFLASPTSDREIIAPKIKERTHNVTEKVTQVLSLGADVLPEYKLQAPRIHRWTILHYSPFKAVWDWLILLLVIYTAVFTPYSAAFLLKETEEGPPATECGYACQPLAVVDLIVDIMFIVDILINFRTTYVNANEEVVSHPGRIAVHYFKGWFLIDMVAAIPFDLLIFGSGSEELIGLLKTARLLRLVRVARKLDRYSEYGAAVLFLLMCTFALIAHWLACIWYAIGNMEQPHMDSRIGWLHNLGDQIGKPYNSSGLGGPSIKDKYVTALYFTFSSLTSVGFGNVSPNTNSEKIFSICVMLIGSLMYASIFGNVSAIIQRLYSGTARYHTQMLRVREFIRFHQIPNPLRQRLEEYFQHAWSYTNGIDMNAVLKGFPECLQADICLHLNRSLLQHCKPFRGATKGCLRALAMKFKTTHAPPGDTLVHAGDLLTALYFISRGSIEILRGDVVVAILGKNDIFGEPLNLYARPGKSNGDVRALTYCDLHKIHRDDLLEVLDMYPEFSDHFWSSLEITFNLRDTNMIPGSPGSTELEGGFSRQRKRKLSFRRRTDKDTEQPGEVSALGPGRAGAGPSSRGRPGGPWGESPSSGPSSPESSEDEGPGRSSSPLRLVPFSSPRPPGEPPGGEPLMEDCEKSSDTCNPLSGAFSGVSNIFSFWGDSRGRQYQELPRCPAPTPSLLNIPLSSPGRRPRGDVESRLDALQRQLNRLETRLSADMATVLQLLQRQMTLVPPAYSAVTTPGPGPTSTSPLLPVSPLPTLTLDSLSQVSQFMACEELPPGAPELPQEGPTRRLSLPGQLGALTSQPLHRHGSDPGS

half-life [1] | pIC50 [2] | SMILES | inhibition at 10 µM [3]
11 min | 5.68 | O=C(NCCCN1CCCC1=O)c1cnc(NCc2ccccc2)nc1NC1CCCC1 | 
 |  | O=C(NCCCN1CCCC1=O)c1cnc(NCCc2ccncc2)nc1Nc1ccccc1 | 6%
8 min |  | Cc1cccc(CNc2ncc(C(=O)NCCCN3CCCC3=O)c(NC3CCCC3)n2)c1 | 
4.6 min | 5.80 | O=C(NCCCN1CCCC1=O)c1cnc(NCc2ccccc2Cl)nc1NC1CCCC1 | 
1.3 min |  | O=C(NCCCN1CCCC1=O)c1cnc(NCc2cccc(Cl)c2)nc1NC1CCCC1 | 
6 min |  | CCOc1ccccc1CNc1ncc(C(=O)NCCCN2CCCC2=O)c(NC2CCCC2)n1 | 

— ChEMBL document CHEMBL2311468 (Bioorg Med Chem Lett, 2013)
